We go through 3 compounds from EP2210885A1, “Substituted heteroarylpiperidine derivatives as melanocortin-4 receptor modulators” (Santhera Pharmaceuticals (Schweiz) AG, priority 2009, dated 2010).

SMILES strings stand for the structures.

In test [1] the target is T1, hMC-4R (Homo sapiens, UniProt P32245).
T1 construct: expressed in transfected cells; host or cells: HEK293 cell membrane preparations
The test can be described thus: hMC-4R membrane binding assay (fluorescence polarization, competition with fluorescence labeled NDP-alpha-MSH). The note with it: HEK293 cell membrane preparations expressing human melanocortin receptors; values grouped in classes. As for the experimental part: A membrane binding assay is used to identify competitive inhibitors of fluorescence labeled NDP-alpha-MSH binding to HEK293 cell membrane preparations expressing human melanocortin receptors.
The test compound or unlabeled NDP-alpha-MSH is dispensed at varying concentrations to a 384 well microtiter plate. Fluorescence labeled NDP-alpha-MSH is dispensed at a single concentration, followed by addition of membrane preparations. The plate is incubated for 5 h at room temperature.
The degree of fluorescence polarization is determined with a fluorescence polarization microplate reader.

Test [2] addresses T1, hMC-4R. The test is described as follows: hMC-4R functional assay (membrane based cAMP fluorescence polarization, agonistic activity). The note with it: cAMP produced compared to stimulation with NDP-alpha-MSH. It is filed as biochemical. As for the experimental part: Agonistic activity of human melanocortin receptors is determined in a homogeneous membrane based assay.
The test compound or unlabeled NDP-alpha-MSH is dispensed at varying concentrations to a 384 well microtiter plate. Membrane preparations from HEK293 cells expressing the human melanocortin receptors are added. After a short preincubation period, an appropriate amount of ATP, GTP and the cAMP antibody is added and the plate is further incubated before the fluorescence labeled cAMP conjugate is dispensed. The plate is incubated for 2 h at 4°C before it is read on a fluorescence polarization microplate reader. The amount of cAMP produced as a response to a test compound is compared to the production of cAMP resulting from stimulation with NDP-alpha-MSH.
On the technique in general: Polarisation of emitted light reports the rotation of a fluorescent probe.

T1 sequence (P32245 whole entry): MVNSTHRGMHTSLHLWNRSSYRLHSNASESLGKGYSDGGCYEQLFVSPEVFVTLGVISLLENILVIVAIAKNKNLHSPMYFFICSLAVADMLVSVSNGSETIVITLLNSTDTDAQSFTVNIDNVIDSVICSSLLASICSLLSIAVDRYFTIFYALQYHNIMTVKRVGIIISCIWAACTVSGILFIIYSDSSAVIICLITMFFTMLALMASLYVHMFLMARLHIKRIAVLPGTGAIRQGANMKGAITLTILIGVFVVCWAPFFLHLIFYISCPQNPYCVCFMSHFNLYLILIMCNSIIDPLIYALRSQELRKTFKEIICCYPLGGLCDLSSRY

As usually defined, the IC50 is the midpoint of a concentration-inhibition curve. Low readings indicate greater potency in that assay, high ones weaker potency in that assay. `CCOC(=O)N[C@H](Cc1ccc(Cl)cc1Cl)C(=O)N1CCC(c2ncccc2OC[C@@H](CC)N(C)C)CC1` [Example 1] returned an IC50 at hMC-4R [1] not above 0.1 µM. The “% activation functional assay” value on hMC-4R [2] is given as -6%.
Consider `CCC(COc1cccnc1C1CCN(C(=O)C(Cc2ccc(Cl)cc2Cl)NC(=O)OC(C)C)CC1)N(C)C` (stereo not drawn) [Example 2], for which, at hMC-4R [1], the half-inhibitory concentration (IC50) was not above 0.1 µM. Besides, the “% activation functional assay” value at hMC-4R [2] was determined as 4%.
Compound `CC[C@H](COc1cccnc1C1CCN(C(=O)[C@@H](Cc2ccc(Cl)cc2Cl)NC(=O)OC2CCCC2)CC1)N(C)C` [Example 3] yielded an IC50 on hMC-4R [1] of 0.1 to 1 µM. On hMC-4R [2], the “% activation functional assay” value amounted to 0%.
